What was measured:
[1] = Volume of distribution in steady state in cannula implanted rat at 1 mg/kg, iv by LC-MS/MS; assay type: ADME, organism-based; conditions: in vivo, read-out: Vdss
[2] = tested on: Human immunodeficiency virus 1; experiment: Antiviral activity against wild type HIV1 NLRepRlucP373S infected in human MT2 cells after 4 to 5 days by luciferase report gene based multiple cycle drug susceptibility assay; assay type: functional, organism-based; conditions: Human immunodeficiency virus 1, NLRepRlucP373S
[3] = Half life in human liver microsomes at 0.5 uM by LC-MS/MS analysis in presence of NADPH; assay type: ADME
[4] = tested on: Human immunodeficiency virus 1; experiment: Antiviral activity against HIV1 containing gag V370A mutant infected in human MT2 cells after 4 to 5 days by luciferase report gene based multiple cycle drug susceptibility assay; assay type: functional, organism-based; conditions: Human immunodeficiency virus 1, MT2
[5] = tested on: Human immunodeficiency virus 1; experiment: Ratio of EC50 for HIV1 NLRepRlucP373S infected in human MT2 cells in presence of HSA to EC50 for HIV1 NLRepRlucP373S infected in human MT2 cells in absence of HSA; assay type: functional
[6] = tested on: Human immunodeficiency virus 1; experiment: Antiviral activity against wild type HIV1 NLRepRlucP373S infected in human MT2 cells after 4 to 5 days in presence of 15 mg/ml HSA by luciferase report gene based multiple cycle drug susceptibility assay; assay type: functional, organism-based; conditions: Human immunodeficiency virus 1, NLRepRlucP373S
[7] = Oral bioavailability in rat at 5 mg/kg by LC-MS/MS; assay type: ADME, organism-based; conditions: in vivo
[8] = Solubility of the compound; assay type: physicochemical
[9] = Cytotoxicity against human MT2 cells assessed as cell viability by redox dye assay; assay type: cell-based
[10] = Cmax in rat at 5 mg/kg, po by LC-MS/MS; assay type: ADME, organism-based; design: dose 5 mg/kg, route oral; conditions: in vivo
[11] = Tmax in rat at 5 mg/kg, po by LC-MS/MS; assay type: ADME, organism-based; conditions: in vivo
[12] = Half life in rat liver microsomes at 0.5 uM by LC-MS/MS analysis in presence of NADPH; assay type: ADME
[13] = Clearance in cannula implanted rat at 1 mg/kg, iv by LC-MS/MS; assay type: ADME, organism-based; conditions: in vivo
[14] = AUC(0 to 6 hrs) in rat at 5 mg/kg, po by LC-MS/MS; assay type: ADME, organism-based; design: time < 6 hr, dose 5 mg/kg, route oral; conditions: in vivo
[15] = Protein binding of the compound in plasma (unknown origin); assay type: ADME, cell-free; conditions: read-out: PB
HEK-293T = experiment: Binding affinity to HIV1 Gag polyprotein assessed as protease-mediated p25-Spacer peptide 1 cleavage in HEK293T cells by measuring […] ratio at 2 uM by Western blot analysis; assay type: cell-based; conditions: Human immunodeficiency virus 1
[16] = Displacement of [3H]-dihydro-bevirimat from HIV1 Gag polyprotein virus like particles after 3 hrs; design: species or system Human immunodeficiency virus 1
[17] = tested on: Human immunodeficiency virus 1; experiment: Antiviral activity against wild type HIV1 NLRepRlucP373S infected in human MT2 cells after 4 to 5 days in presence of 27 mg/ml HSA by luciferase report gene based multiple cycle drug susceptibility assay; assay type: functional, organism-based; conditions: Human immunodeficiency virus 1, NLRepRlucP373S

| Structure (SMILES) | Vd [1] [L/kg] | EC50 [2] [nM] | half-life at 0.5 µM [3] [h] | EC50 [4] [nM] | Ratio EC50 [5] | EC50 [6] [nM] | bioavailability [7] [%] | solubility [8] | CC50 [9] [nM] | Cmax [10] [nM] | Tmax [11] [h] | half-life at 0.5 µM [12] [h] | clearance [13] [mL/min/kg] | AUC(0-t) at 6 h [14] [µM·h] | fraction unbound [15] | Ratio (HEK-293T) | IC50 [16] [nM] | EC50 [17] [nM] |
| --- | --- | --- | --- | --- | --- | --- | --- | --- | --- | --- | --- | --- | --- | --- | --- | --- | --- | --- |
| C=C(C)[C@@H]1CC[C@]2(CO)CC[C@]3(C)[C@H](CC[C@@H]4[C@@]5(C)CC=C(c6ccc(C(=O)O)cc6)C(C)(C)[C@@H]5CC[C@]43C)[C@@H]12 | 0.5 | 11 | 2 | 212 | 2.5 | 27 | 4 | Insoluble | 9650 | 590 | 5 | 2 | 2.1 | 2.14 |  |  |  |  |
| C=C(C)[C@@H]1CC[C@]2(C(=O)O)CC[C@]3(C)[C@H](CC[C@@H]4[C@@]5(C)CC[C@H](OC(=O)CC(C)(C)C(=O)O)C(C)(C)[C@@H]5CC[C@]43C)[C@@H]12 [BEVIRIMAT] |  |  |  |  |  |  | 18 |  |  | 2590 | 0.3 |  | 4 |  | < 0.001 |  |  |  |
| C=C(C)[C@@H]1CC[C@]2(CO)CC[C@]3(C)[C@H](CC[C@@H]4[C@@]5(C)CC=C(c6ccc(C(=O)O)cc6Cl)C(C)(C)[C@@H]5CC[C@]43C)[C@@H]12 |  | 114 |  | > 4000 | 1 | 117 |  |  | 17300 |  |  |  |  |  |  |  |  |  |
| C=C(C)[C@@H]1CC[C@]2(CO)CC[C@]3(C)[C@H](CC[C@@H]4[C@@]5(C)CC=C(c6ccc(C(=O)O)cc6C)C(C)(C)[C@@H]5CC[C@]43C)[C@@H]12 |  | 613 |  | 3880 | 1 | 660 |  |  | 7020 |  |  |  |  |  |  |  |  |  |
| C=C(C)[C@@H]1CC[C@]2(C(=O)O)CC[C@]3(C)[C@H](CC[C@@H]4[C@@]5(C)CC=C(c6ccc(C(=O)O)cc6)C(C)(C)[C@@H]5CC[C@]43C)[C@@H]12 | 0.2 |  | 2 |  |  |  | 4 | Insoluble | 27200 | 1310 | 4 | 2 | 1 | 5.72 |  | 1.6 | 27 | 310 |
| C=C(C)[C@@H]1CC[C@]2(CO)CC[C@]3(C)[C@H](CC[C@@H]4[C@@]5(C)CC=C(c6ccc(C(=O)O)c(O)c6)C(C)(C)[C@@H]5CC[C@]43C)[C@@H]12 |  | 81 |  | 2780 | 0.8 | 65 |  |  | 9760 |  |  |  |  |  |  |  |  |  |

From ChEMBL document CHEMBL3774389, “C-3 benzoic acid derivatives of C-3 deoxybetulinic acid and deoxybetulin as HIV-1 maturation inhibitors” (Bioorg Med Chem, 2016)
